Numbering of substitutions follows the chain as printed.
Tests used:
[1] = target: T1, C285G mutant PPARγ2 (Mus musculus, UniProt P37238, C313G); assay: PPRE-Luc reporter assay with C285G mutant PPARγ2 in 3T3-L1 cells; type: cell-based; conditions: 5 μM, 12 h
T1 construct: expressed in transfected cells; host or cells: 3T3-L1, pCS4 CMV vector
T1 sequence (P37238 1-505 C313G): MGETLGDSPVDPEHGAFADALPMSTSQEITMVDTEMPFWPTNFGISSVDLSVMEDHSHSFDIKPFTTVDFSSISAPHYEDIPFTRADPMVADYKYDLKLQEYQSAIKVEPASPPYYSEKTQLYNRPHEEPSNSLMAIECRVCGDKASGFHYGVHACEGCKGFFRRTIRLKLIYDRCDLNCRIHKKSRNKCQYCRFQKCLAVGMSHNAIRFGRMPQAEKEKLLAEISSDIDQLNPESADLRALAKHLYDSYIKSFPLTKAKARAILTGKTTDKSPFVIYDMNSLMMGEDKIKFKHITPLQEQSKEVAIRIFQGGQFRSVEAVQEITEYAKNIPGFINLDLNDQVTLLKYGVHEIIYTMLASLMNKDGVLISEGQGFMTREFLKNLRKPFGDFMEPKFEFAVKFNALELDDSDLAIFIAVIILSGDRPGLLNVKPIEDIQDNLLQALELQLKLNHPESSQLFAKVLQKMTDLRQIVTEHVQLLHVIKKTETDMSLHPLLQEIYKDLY
T1 sequence (P28700 1-467 partner): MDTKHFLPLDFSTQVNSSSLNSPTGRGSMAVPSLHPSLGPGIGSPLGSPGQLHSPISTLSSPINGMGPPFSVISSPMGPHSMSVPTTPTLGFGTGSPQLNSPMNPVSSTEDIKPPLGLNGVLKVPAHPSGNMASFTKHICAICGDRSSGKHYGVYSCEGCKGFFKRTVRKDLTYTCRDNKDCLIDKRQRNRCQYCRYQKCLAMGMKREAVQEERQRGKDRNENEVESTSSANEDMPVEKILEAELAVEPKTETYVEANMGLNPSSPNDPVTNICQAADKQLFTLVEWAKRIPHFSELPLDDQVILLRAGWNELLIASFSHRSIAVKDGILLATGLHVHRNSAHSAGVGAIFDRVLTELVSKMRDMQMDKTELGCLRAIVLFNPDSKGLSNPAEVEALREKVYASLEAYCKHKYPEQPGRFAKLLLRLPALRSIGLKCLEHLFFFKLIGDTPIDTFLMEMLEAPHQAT
Protocol: To investigate the contribution site on the PPARγ2 to the interaction with 8o, we generated mutant forms of the PPARγ2 (Fig. 5). […] Thus, we tested Cys-to-Gly (Cys285), Arg-to-Gly (Arg288) substitution mutants of PPARγ2. […] The results indicated 8o has interaction with both Cys285 and Arg288, which are in agreement with the docking study.
Figure 5 Mutational study. Residues Cys285 and Arg288 of PPARγ are important for 8o function. The transcriptional activity was determined in 3T3-L1 cells transiently co-transfected with PPRE-driven luciferase reporter gene (PPRE-Luc) and PPARγ2 (WT) or (C285G, R288G) expression vector. After 24 h of transfection, the cells were cultured with 5 μM GW9662 and 5 μM 8o respectively for 12 h. Luciferase activity was measured after 36 h. Error bars mean ± SD of at least three experiments. ^*P < 0.05, ^**P < 0.01.
For plasmids expressing PPARγ2, full length PPARγ2 (mouse, 1518 bp: NCBI Reference Sequence: NP_035276.2) was subcloned into CMV promoter-derived mammalian expression vector (pCS4). […]
3T3-L1 cells were transfected for indicated combinations of expression plasmids along with a luciferase reporter plasmid (PPRE-Luc). […] Luciferase activities were measured using a luciferase reporter assay kit (Promega, Madison, WI, USA). […]

[2] = target: T2, R288G mutant PPARγ2 (Mus musculus, UniProt P37238, R316G); assay: PPRE-Luc reporter assay with R288G mutant PPARγ2 in 3T3-L1 cells; conditions: 5 μM, 12 h
T2 sequence (P37238 1-505 R316G): T1 sequence (P37238 1-505 C313G) with G313C, R316G
T2 sequence (P28700 1-467 partner): T1 sequence (P28700 1-467 partner)

melting point | effect of Cys285 to Gly substitution on the compound's inhibition of PPARγ2 activity [1] | effect of Arg288 to Gly substitution on the compound's inhibition of PPARγ2 activity [2] | SMILES
193.5 to 194.6 °C |  |  | COc1cc2cc3n(c(=O)c2cc1OC)CNc1ccc(Cl)cc1-3 [Compound 8n, 2-Chloro-10,11-dimethoxy-5H-isoquinolino[2,3-c]quinazolin-8(6H)-one]
228.7 to 230.5 °C | abolished the inhibitory effect | abolished the inhibitory effect | COc1cc2cc3n(c(=O)c2cc1OC)CNc1cc(Cl)ccc1-3 [Compound 8o, 3-Chloro-10,11-dimethoxy-5H-isoquinolino[2,3-c]quinazolin-8(6H)-one]
 | abolished the inhibitory effect |  | O=C(Nc1ccccc1)c1cc([N+](=O)[O-])ccc1Cl [GW9662, reference compound]
